The values that follow come from patent publication EP4186364A1, “ANTIMICROBIAL TREATMENT OF SUBSTRATES” (Livinguard AG, priority 2021, dated 2023).

SMILES strings stand for the structures. ≈ marks a conversion by molar mass, not a printed value. Where two headings read alike, the source gives them in different places.

The test system of data set [1] is Escherichia coli (E.coli). As to the kind of experiment: Antimicrobial activity of a METAC solution (optical density OD600). Format: cell-based.
The conditions of data set [2]: at 20 °C; Column elution; cited from earlier work.
For data set [3] the following is noted: at 20 °C; Flask method; cited from earlier work.

On to `C=C(C)C(=O)OCC[N+](C)(C)C.[Cl-]` [METAC, [2-(methacryloyloxy)ethyl]trimethylammonium chloride], for which the “METAC required to stop E.coli growth” value in data set [1] (METAC in solution, OD600, Fig. 8b) is 40 mg/mL. Besides, in data set [1] (METAC monomer as such, not bound to a substrate), the antimicrobial activity entry is recorded as “low antimicrobial activity”.
Turning to `Cc1cc(C)c(C(=O)P(=O)(c2ccccc2)c2ccccc2)c(C)c1` [TPO, diphenyl(2,4,6-trimethylbenzoyl)phosphine oxide], the values for the water solubility in data set [2] and in data set [3] were 11.9 µg/mL (≈ 34.2 µM) and 3.3 µg/mL (≈ 9.47 µM), respectively.
